Laboratory results published in patent US8008329B2 (Dong Wha Pharmaceutical Co., Ltd., priority 2008, dated 2011).
Marks after values point to notes of the source that are not given here.

System: osteoclast differentiation
Experiment: Osteoclast differentiation in co-culture of mouse bone marrow cells and ST2 cells, TRAP staining (Examples 8-9)
Type: cell-based
Settings: for % number of osteoclast (vs. solvent control group): 0.1 μM each, day 7; for activity at 0.1 µM: Mus musculus, Osteoclast, 168 h, Individual treatment (compounds), day 7, read-out: % number of osteoclast (vs. solvent control group)
Protocol: The differentiation of osteoclast from mouse bone marrow cells was induced by using co-culture system, and inhibitory effect of the drug on osteoclast differentiation was evaluated by treatment of single or combination formulation. Co-culture was performed using mouse bone marrow cells and ST cells of bone marrow-derived stromal cell.
Femora and tibia were aseptically ectomized from 6˜8 week-old male ddY mice to harvest bone marrow cells by a general method using a syringe. The red blood cells were removed from the bone marrow cells, followed by centrifugation. The bone marrow cells were suspended in α-MEM medium supplemented with 10% fetal bovine serum, and the numbers of the eukaryotic cells in the harvested bone marrow cells were counted and then immediately used for a co-culture system.
ST2 cells (RIKEN Cell Bank, Tsukuba, Japan) were cultured in α-MEM medium supplemented with 10% fetal bovine serum until confluent. Then, these cells were diluted to a desired cell number, and used for the experiment.
The bone marrow cells (1×10^5 cells/well) and ST2 cells (3,000 cells/well) prepared in the above were plated in a 96-well plate using α-MEM medium supplemented with 10% fetal bovine serum. At this time, differentiation factors, 1α,25-dihydroxyvitamin D3 (10^−8 M, hereinbelow, referred to as vitamin D3) and dexamethasone (10^−8 M), were co-added to the medium to induce osteoclast differentiation. The medium was replaced with fresh media containing the differentiation factors every 2 to 3 days.
After 7 days, when multinucleated osteoclasts were observed, the medium was removed from the wells, and then the cells were fixed with PBS containing 10% Formalin. Tartrate-Resistant Acid Phosphatase (hereinbelow, referred to as TRAP) was used as a marker to measure the mature osteoclast in consideration of its characteristics showing a positive reaction to a TRAP staining solution. The TRAP staining solution was prepared in such the manner that a substrate, naphtol AS-MS phosphate and a coloring agent (Fast Red Violet LB salt) were dissolved in N,N-dimethylformamide. A 0.1 N NaHCO3 buffer solution containing 50 mM tartaric acid was added thereto, and the mixture was stored at a refrigerator prior to use as a staining solution. The osteoclasts with 6-7 or more nuclei showing a TRAP-positive reaction were counted under a microscope.
Alendronic acid was dissolved in distilled water at a concentration of 0.1 mM, and benzamidine derivatives were dissolved in DMSO at a concentration of 0.1 mM. All of them were diluted 1,000 fold with the differentiation media to a final concentration of 0.1 μM, respectively. In this connection, a control group was maintained in 0.1% DMSO.
As the above described, the sample substances and cells, which were diluted to the desired concentrations, were plated in 96-well plate, and co-cultured. On days 3 and 5 of culture, the media were replaced with fresh differentiation media containing the sample substances. On day 7 of culture, TRAP staining was performed to count the mature multinucleated osteoclast that was formed by differentiation. The mature osteoclasts with 6 or more nuclei were counted under a microscope. The results were expressed as a percentage (%) of the number of mature osteoclast observed in each experimental group, when the number of mature osteoclast in the control group (solvent only) was regarded as 100%. The experiment was performed with 4 wells per experimental group (n=4), and the results were expressed as mean value±standard deviation. In addition, the experiment was repeated at least two times, and Student t-test was applied for significant difference between experimental groups.
The experiment was performed in the same manner as in Example 8 to evaluate the effect of individual or combination treatment of risedronic acid and benzamidine derivatives of Formula 1 on osteoclast differentiation, except using 0.1 μM risedronic acid instead of 0.1 μM alendronic acid. […]

[1] = Combination treatment (alendronic acid + compounds)
[2] = Combination treatment (risedronic acid + compounds)

SMILES	% number of osteoclast (vs. solvent control group) [1]	% number of osteoclast (vs. solvent control group) [2]	activity at 0.1 µM
Cc1nc(-c2ccc(OCCCOc3ccc(C(=N)NO)cc3)cc2)c(C(C)C)s1 [Compound 193, N-hydroxy-4-{3-[4-(5-isopropyl-2-methyl-1,3-thiazol-4-yl)phenoxy]propoxy}-benzamidine]	34 ± 5.0^ab %	27 ± 4.8^ac %	48 ± 4.4%
CCc1sc(N(Cc2cccnc2)Cc2cccnc2)nc1-c1ccc(OCCCCCOc2ccc(C(=N)NO)cc2)cc1 [Compound 137, N-hydroxy-4-[5-(4-{2-[bis-(pyridin-3-ylmethyl)amino]-5-ethyl-1,3-thiazol-4-yl}phenoxy)pentyloxy]-benzamidine]	11 ± 4.3^b %	7 ± 2.2^ac %	19 ± 2.9%
N=C(NO)c1ccc(OCCCCCOc2ccc(-c3nc(N4CCOCC4)sc3N3CCOCC3)cc2)cc1 [Compound 290, N-hydroxy-4-{5-[4-(2,5-di-morpholin-4-yl-thiazol-4-yl)-phenoxy]-pentyloxy}-benzamidine]	23 ± 4.7^ab %	12 ± 2.0^ac %	52 ± 6.2%
COCc1sc(C)nc1-c1ccc(OCCCCCOc2ccc(C(=N)NO)cc2)cc1 [Compound 76, N-hydroxy-4-{5-[4-(5-methoxymethyl-2-methyl-1,3-thiazol-4-yl)phenoxy]pentyloxy}-benzamidine]	31 ± 6.8^ab %	22 ± 3.8^a %	53 ± 6.5%
Cc1nc(-c2ccc(OCCCCOc3ccc(C(=N)NO)cc3)cc2)c(C(C)C)s1 [Compound 194, N-hydroxy-4-{4-[4-(5-isopropyl-2-methyl-1,3-thiazol-4-yl)phenoxy]butoxy}-benzamidine]	33 ± 7.1^ab %	30 ± 7.0^ac %	74 ± 10.1%
Cc1nc(-c2ccc(OCCCCCOc3ccc(C(=N)NO)cc3)cc2)c(CN2CCOCC2)s1 [Compound 293, N-hydroxy-4-{5-[4-(2-methyl-5-morpholin-4-ylmethyl-thiazol-4-yl)-phenoxy]-pentyloxy}-benzamidine]	15 ± 2.6^b %	11 ± 2.6^c %	36 ± 10%
Cc1nc(-c2ccc(OCCCCCOc3ccc(C(=N)NO)cc3)cc2)c(C2CCCC2)s1 [Compound 43, N-hydroxy-4-{5-[4-(5-cyclopentyl-2-methyl-1,3-thiazol-4-yl)phenoxy]pentyloxy}-benzamidine]	32 ± 6.6^ab %	40 ± 7.8^c %	74 ± 14.6%
CCc1nc(-c2ccc(OCCCCCOc3ccc(C(=N)NO)cc3)cc2)c(CCN2CCOCC2)s1 [Compound 255, N-hydroxy-4-(5-{4-[2-ethyl-5-(2-morpholin-4-yl-ethyl)-thiazol-4-yl]-phenoxy}-pentyloxy)-benzamidine]	18 ± 1.7^ab %	12 ± 3.1^ac %	50 ± 3.9%
CCc1nc(-c2ccc(OCCCCCOc3ccc(C(=N)NO)cc3)cc2)c(CCN2CCSCC2)s1 [Compound 256, N-hydroxy-4-(5-{4-[2-ethyl-5-(2-thiomorpholin-4-yl-ethyl)-thiazol-4-yl]-phenoxy}-pentyloxy)-benzamidine]	26 ± 3.0^ab %	12 ± 2.4^ac %	49 ± 0.9%
N=C(NO)c1ccc(OCCCCCOc2ccc(-c3nc(N(CCN4CCOCC4)Cc4ccccc4)sc3CCN3CCOCC3)cc2)cc1 [Compound 269, N-hydroxy-4-(5-{4-[2-[benzyl-(2-morpholin-4-yl-ethyl)-amino]-5-(2-morpholin-4-yl-ethyl)-thiazol-4-yl]-phenoxy}-pentyloxy)-benzamidine]	23 ± 5.2^ab %	17 ± 4.4^ac %	38 ± 3.7%
Cc1nc(-c2ccc(OCCCCCOc3ccc(C(=N)NO)cc3)cc2)c(Cn2ccnc2)s1 [Compound 305, N-hydroxy-4-{5-[4-(5-imidazol-1-ylmethyl-2-methyl-thiazol-4-yl)-phenoxy]-pentyloxy}-benzamidine]	15 ± 4.8^ab %	11 ± 4.1^ac %	58 ± 6.1%
CN(Cc1ccncc1)c1nc(-c2ccc(OCCCCCOc3ccc(C(=N)NO)cc3)cc2)c(CN2CCOCC2)s1 [Compound 309, N-hydroxy-4-(5-{4-[2-(methyl-pyridin-4-ylmethyl-amino)-5-morpholin-4-ylmethyl-thiazol-4-yl]-phenoxy}-pentyloxy)-benzamidine]	13 ± 5.1^ab %	8 ± 3.0^ac %	50 ± 6.1%
N=C(NO)c1ccc(OCCCCCOc2ccc(-c3csc(C4CCCCC4)n3)cc2)cc1 [Compound 8, N-hydroxy-4-{5-[4-(2-cyclohexyl-1,3-thiazol-4-yl)phenoxy]pentyloxy}-benzamidine]	22 ± 3.4^ab %	27 ± 3.8^ac %	65 ± 10.4%
CCc1sc(C2CCCCC2)nc1-c1ccc(OCCCCOc2ccc(C(=N)NO)cc2)cc1 [Compound 196, N-hydroxy-4-{4-[4-(2-cyclohexyl-5-ethyl-thiazol-4-yl)-phenoxy]-butoxy}-benzamidine]	37 ± 4.6^ab %	42 ± 8.8^ac %	68 ± 7.1%
N=C(NO)c1ccc(OCCCCCOc2ccc(-c3nc(N)sc3CC3CCCC3)cc2)cc1 [Compound 67, N-hydroxy-4-{5-[4-(2-amino-5-cyclopentylmethyl-1,3-thiazol-4-yl)phenoxy]pentyloxy}-benzamidine]	53 ± 6.4^b %	36 ± 1.7^ac %	74 ± 11.7%
Cc1nc(-c2ccc(OCCCCCOc3ccc(C(=N)NO)cc3)cc2)c(CC2CCCC2)s1 [Compound 45, N-hydroxy-4-{5-[4-(5-cyclopentylmethyl-2-methyl-1,3-thiazol-4-yl)phenoxy]pentyloxy}-benzamidine]	49 ± 8.1^ab %	38 ± 11.9^ac %	72 ± 4.6%
COCCN(CCOC)c1nc(-c2ccc(OCCCCCOc3ccc(C(=N)NO)cc3)cc2)c(C)s1 [Compound 122, N-hydroxy-4-[5-(4-{2-[bis-(2-methoxyethyl) -amino]-5-methyl-1,3-thiazol-4-yl}phenoxy)pentyloxy]-benzamidine]	37 ± 8.1^ab %	49 ± 7.3^ac %	71 ± 4.4%
Cc1nc(-c2ccc(OCc3ccccc3COc3ccc(C(=N)NO)cc3)cc2)c(C(C)C)s1 [Compound 208, N-hydroxy-4-{2-[4-(5-isopropyl-2-methyl-thiazol-4-yl)-phenoxymethyl]-benzyloxy}-benzamidine]	75 ± 6.3%	67 ± 6.5^ac %	92 ± 5.8%
CN(CCN1CCOCC1)c1nc(-c2ccc(OCCCCCOc3ccc(C(=N)NO)cc3)cc2)c(CN2CCOCC2)s1 [Compound 313, N-hydroxy-4-[5-(4-{2-[methyl-(2-morpholin-4-yl-ethyl)-amino]-5-morpholin-4-ylmethyl-thiazol-4-yl}-phenoxy)-pentyloxy]-benzamidine]	23 ± 5.9^ab %	13 ± 3.3^ac %	53 ± 6%
